In patent publication US10294202B2, “Pyrrolidinones as herbicides” (FMC Corporation, priority 2013, dated 2019):

What was measured:
wheat = test: Test A pre-/postemergence herbicide test; format: in vivo, Triticum aestivum; settings: Postemergence
Summary of the method: (§1)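 Directed soil spray to seeded pots (preemergence) or spray onto one- to two-leaf seedlings 2–10 cm tall (postemergence); loam/sand substrate throughout. Evaluated visually after about 10 days against untreated plants, 0 = no effect, 100 = complete control.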

rice = test: Test B flooded paddy test; format: in vivo, Oryza sativa; settings: 500 g ai/ha, Flood; scale of 0 to 100 where 0 is no effect and 100 is complete control
Summary of the method: (§2)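 Scoring: visual, compared with untreated controls, 0 = no effect through 100 = complete control, taken 13 to 15 days after treatment in the greenhouse. Compounds had been added to paddy water over soil flooded 3 cm deep at the plants' 2-leaf stage.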

ryegrass, Italian = test: Test A pre-/postemergence herbicide test; format: in vivo, Lolium multiflorum
Summary of the method: as §1

pigweed = test: Test A pre-/postemergence herbicide test; format: in vivo, Amaranthus retroflexus
Summary of the method: as §1

sedge, umbrella = test: Test B flooded paddy test; format: in vivo, Cyperus difformis; settings: 500 g ai/ha, Flood; scale of 0 to 100 where 0 is no effect and 100 is complete control
Summary of the method: as §2

barnyardgrass [1] = test: Test A pre-/postemergence herbicide test; format: in vivo, Echinochloa crus-galli
Summary of the method: as §1

ducksalad = test: Test B flooded paddy test; format: in vivo, Heteranthera limosa; settings: 500 g ai/ha, Flood; scale of 0 to 100 where 0 is no effect and 100 is complete control
Summary of the method: as §2

kochia = test: Test A pre-/postemergence herbicide test; format: in vivo, Kochia scoparia
Summary of the method: as §1

blackgrass = test: Test A postemergence herbicide test; format: in vivo, Alopecurus myosuroides
Summary of the method: (§3)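 Visual injury rating, 0 (no effect) to 100 (complete control), versus untreated controls ~10 days after treatment. Postemergence spray applied at one- to two-leaf stage, plants 2–10 cm tall, potted in loam soil/sand. Greenhouse-held.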

giant foxtail = test: Test A pre-/postemergence herbicide test; format: in vivo, Setaria faberii
Summary of the method: as §1

corn = test: Test A pre-/postemergence herbicide test; format: in vivo, Zea mays; settings: Postemergence
Summary of the method: as §1

galium = test: Test A postemergence herbicide test; format: in vivo, Galium aparine
Summary of the method: as §3

ragweed = test: Test A pre-/postemergence herbicide test; format: in vivo, Ambrosia elatior
Summary of the method: as §1

barnyardgrass [2] = test: Test B flooded paddy test; format: in vivo, Echinochloa crus-galli; settings: 500 g ai/ha, Flood; scale of 0 to 100 where 0 is no effect and 100 is complete control
Summary of the method: as §2

[3] = 125 g ai/ha, visual rating on 0 to 100 scale (0 no effect, 100 complete control), approx. 10 days
[4] = 500 g ai/ha, 0 to 100 scale (0 no effect, 100 complete control)
[5] = Postemergence, 125 g ai/ha, visual rating on 0 to 100 scale (0 no effect, 100 complete control), approx. 10 days
[6] = Postemergence, 500 g ai/ha, 0 to 100 scale (0 no effect, 100 complete control)
[7] = Preemergence, 125 g ai/ha, 0 to 100 scale where 0 is no effect and 100 is complete control
[8] = Preemergence, 500 g ai/ha, visual rating on 0 to 100 scale (0 no effect, 100 complete control)

SMILES | Plant response rating, Wheat (wheat; [3]) | Plant response rating, Wheat (wheat; [4]) | Plant response rating, Rice (rice) | Plant response rating, Ryegrass, Italian (ryegrass, Italian; [5]) | Plant response rating, Ryegrass, Italian (ryegrass, Italian; [6]) | Plant response rating, Ryegrass, Italian (ryegrass, Italian; [7]) | Ryegrass, Italian plant response rating (ryegrass, Italian; [8]) | Plant response rating, Pigweed (pigweed; [5]) | Plant response rating, Pigweed (pigweed; [6]) | Plant response rating, Pigweed (pigweed; [7]) | Pigweed plant response rating (pigweed; [8]) | Plant response rating, Sedge, Umbrella (sedge, umbrella) | Plant response rating, Barnyardgrass (barnyardgrass [1]; [5]) | Plant response rating, Barnyardgrass (barnyardgrass [1]; [6]) | Plant response rating, Barnyardgrass (barnyardgrass [1]; [7]) | Barnyardgrass plant response rating (barnyardgrass [1]; [8]) | Plant response rating, Ducksalad (ducksalad) | Plant response rating, Kochia (kochia; [5]) | Plant response rating, Kochia (kochia; [6]) | Plant response rating, Kochia (kochia; [7]) | further results
O=C1NCC(c2cccc(C(F)(F)F)c2)C1C(=O)Nc1cc(F)ccc1F (stereo not drawn) [Compound 314] | 0 | 0 | 15 | 0 | 0 | 0 | 0 | 0 | 0 | 0 | 0 | 0 | 30 | 80 | 20 | 80 | 40 | 0 | 0 | 0 | Kochia plant response rating (kochia; [8]): 0; Plant response rating, Blackgrass (blackgrass; [3]): 0; Plant response rating, Blackgrass (blackgrass; [4]): 0; Plant response rating, Foxtail, Giant (giant foxtail; [5]): 60; Plant response rating, Foxtail, Giant (giant foxtail; [6]): 80; Plant response rating, Foxtail, Giant (giant foxtail; [7]): 30; Foxtail, Giant plant response rating (giant foxtail; [8]): 90; Plant response rating, Corn (corn; [3]): 0; Plant response rating, Corn (corn; [4]): 0; Plant response rating, Galium (galium; [3]): 0; Plant response rating, Galium (galium; [4]): 0; Plant response rating, Ragweed (ragweed; [5]): 0; Plant response rating, Ragweed (ragweed; [6]): 0; Plant response rating, Ragweed (ragweed; [7]): 0; Ragweed plant response rating (ragweed; [8]): 0; Plant response rating, Barnyardgrass (barnyardgrass [2]): 25
CC(C)c1cccc(C2CNC(=O)C2C(=O)Nc2ccccc2C(F)(F)F)c1 (stereo not drawn) [Compound 320] | 0 | 0 | 0 | 0 | 30 | 20 | 50 | 0 | 0 | 0 | 0 | 0 | 50 | 90 | 20 | 80 | 100 | 20 | 20 | 0 | Kochia plant response rating (kochia; [8]): 20; Plant response rating, Blackgrass (blackgrass; [3]): 0; Plant response rating, Blackgrass (blackgrass; [4]): 20; Plant response rating, Foxtail, Giant (giant foxtail; [5]): 30; Plant response rating, Foxtail, Giant (giant foxtail; [6]): 70; Plant response rating, Foxtail, Giant (giant foxtail; [7]): 30; Foxtail, Giant plant response rating (giant foxtail; [8]): 90; Plant response rating, Corn (corn; [3]): 0; Plant response rating, Corn (corn; [4]): 0; Plant response rating, Galium (galium; [3]): 0; Plant response rating, Galium (galium; [4]): 0; Plant response rating, Ragweed (ragweed; [5]): 0; Plant response rating, Ragweed (ragweed; [6]): 30; Plant response rating, Ragweed (ragweed; [7]): 0; Ragweed plant response rating (ragweed; [8]): 30; Plant response rating, Barnyardgrass (barnyardgrass [2]): 45
O=C1NCC(c2ccc(SC(F)(F)F)cc2)C1C(=O)Nc1ccccc1F (stereo not drawn) [Compound 321] | 0 | 0 | 15 | 0 | 0 | 0 | 0 | 0 | 0 | 0 | 0 | 0 | 0 | 50 | 0 | 30 | 40 | 0 | 0 | 0 | Kochia plant response rating (kochia; [8]): 0; Plant response rating, Blackgrass (blackgrass; [3]): 0; Plant response rating, Blackgrass (blackgrass; [4]): 0; Plant response rating, Foxtail, Giant (giant foxtail; [5]): 0; Plant response rating, Foxtail, Giant (giant foxtail; [6]): 50; Plant response rating, Foxtail, Giant (giant foxtail; [7]): 0; Foxtail, Giant plant response rating (giant foxtail; [8]): 50; Plant response rating, Corn (corn; [3]): 0; Plant response rating, Corn (corn; [4]): 0; Plant response rating, Galium (galium; [3]): 0; Plant response rating, Galium (galium; [4]): 0; Plant response rating, Ragweed (ragweed; [5]): 0; Plant response rating, Ragweed (ragweed; [6]): 0; Plant response rating, Ragweed (ragweed; [7]): 0; Ragweed plant response rating (ragweed; [8]): 0; Plant response rating, Barnyardgrass (barnyardgrass [2]): 20
O=C1NCC(c2ccc(SC(F)(F)F)cc2)C1C(=O)Nc1ccc(F)c(F)c1F (stereo not drawn) [Compound 322] | 0 | 0 | 0 | 0 | 0 | 0 | 0 | 0 | 0 | 0 | 0 | 0 | 0 | 60 | 0 | 40 | 100 | 0 | 0 | 0 | Kochia plant response rating (kochia; [8]): 0; Plant response rating, Blackgrass (blackgrass; [3]): 0; Plant response rating, Blackgrass (blackgrass; [4]): 0; Plant response rating, Foxtail, Giant (giant foxtail; [5]): 0; Plant response rating, Foxtail, Giant (giant foxtail; [6]): 60; Plant response rating, Foxtail, Giant (giant foxtail; [7]): 0; Foxtail, Giant plant response rating (giant foxtail; [8]): 70; Plant response rating, Corn (corn; [3]): 0; Plant response rating, Corn (corn; [4]): 20; Plant response rating, Galium (galium; [3]): 0; Plant response rating, Galium (galium; [4]): 0; Plant response rating, Ragweed (ragweed; [5]): 0; Plant response rating, Ragweed (ragweed; [6]): 0; Plant response rating, Ragweed (ragweed; [7]): 0; Ragweed plant response rating (ragweed; [8]): 0; Plant response rating, Barnyardgrass (barnyardgrass [2]): 0
O=C1NCC(c2cccc(-n3ccc(C(F)(F)F)n3)c2)C1C(=O)Nc1cccc(F)c1F (stereo not drawn) [Compound 326] | 0 | 0 | 0 | 0 | 0 | 0 | 40 | 0 | 0 | 0 | 0 | 0 | 0 | 20 | 0 | 30 | 0 | 0 | 30 | 40 | Kochia plant response rating (kochia; [8]): 50; Plant response rating, Blackgrass (blackgrass; [3]): 0; Plant response rating, Blackgrass (blackgrass; [4]): 0; Plant response rating, Foxtail, Giant (giant foxtail; [5]): 20; Plant response rating, Foxtail, Giant (giant foxtail; [6]): 50; Plant response rating, Foxtail, Giant (giant foxtail; [7]): 50; Foxtail, Giant plant response rating (giant foxtail; [8]): 60; Plant response rating, Corn (corn; [3]): 0; Plant response rating, Corn (corn; [4]): 0; Plant response rating, Galium (galium; [3]): 0; Plant response rating, Galium (galium; [4]): 0; Plant response rating, Ragweed (ragweed; [5]): 0; Plant response rating, Ragweed (ragweed; [6]): 0; Plant response rating, Ragweed (ragweed; [7]): 0; Ragweed plant response rating (ragweed; [8]): 0; Plant response rating, Barnyardgrass (barnyardgrass [2]): 0
